Assay results as given in patent publication US7271005B2, “Modulation of bacterial membrane permeability” (priority 2002, dated 2007).

T1: PprA / PprB (Pseudomonas aeruginosa, UniProt Q9HWA7)
T1 construct: coding regions of the two open reading frames were amplified by PCR; His-tag; made in house; host or cells: E. coli strain M15 (pREP4) with pYW021 (pQE32-pprA) or pYW024 (pQE31-pprB)
T1 sequence (Q9HWA7 1-922): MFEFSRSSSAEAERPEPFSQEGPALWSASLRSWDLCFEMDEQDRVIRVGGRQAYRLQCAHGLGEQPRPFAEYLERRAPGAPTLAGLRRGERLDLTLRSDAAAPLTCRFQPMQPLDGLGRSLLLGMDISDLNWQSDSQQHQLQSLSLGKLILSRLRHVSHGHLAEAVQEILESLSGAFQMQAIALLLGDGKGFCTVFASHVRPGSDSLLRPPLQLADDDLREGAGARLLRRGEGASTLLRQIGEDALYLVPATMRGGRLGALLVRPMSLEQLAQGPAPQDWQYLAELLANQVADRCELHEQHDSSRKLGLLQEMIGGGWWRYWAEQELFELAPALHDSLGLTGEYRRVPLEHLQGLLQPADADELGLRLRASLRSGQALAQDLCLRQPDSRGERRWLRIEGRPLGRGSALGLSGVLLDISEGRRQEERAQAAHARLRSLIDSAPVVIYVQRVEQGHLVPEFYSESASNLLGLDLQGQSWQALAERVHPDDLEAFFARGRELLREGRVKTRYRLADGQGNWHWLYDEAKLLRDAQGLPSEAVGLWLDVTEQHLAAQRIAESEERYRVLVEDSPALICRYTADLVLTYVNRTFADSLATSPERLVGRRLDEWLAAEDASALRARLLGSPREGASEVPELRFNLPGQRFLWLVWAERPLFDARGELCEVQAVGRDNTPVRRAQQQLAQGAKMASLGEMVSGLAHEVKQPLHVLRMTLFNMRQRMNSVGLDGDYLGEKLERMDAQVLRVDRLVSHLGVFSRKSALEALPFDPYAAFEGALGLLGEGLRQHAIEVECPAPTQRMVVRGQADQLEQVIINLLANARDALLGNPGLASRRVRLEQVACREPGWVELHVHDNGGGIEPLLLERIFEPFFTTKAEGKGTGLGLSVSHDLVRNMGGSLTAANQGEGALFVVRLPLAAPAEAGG


What was measured:
[1] = system: P. aeruginosa PAK1-3; test: Antibiotic resistance of spontaneous neomycin-resistant mutant PAK1-3 compared with parent PAK; assay type: cell-based, Pseudomonas aeruginosa; settings: mutant PAK1-3 versus parent strain PAK
Protocol: A mutant P. aeruginosa (PAK) strain was used to identify the pprA membrane permeability-associated gene. Spontaneous neomycin resistant mutants of PAK were selected by culturing on L-agar medium containing 200 μg/ml neomycin.

[2] = system: clinical isolates of P. aeruginosa; test: Antibiotic sensitivity of CF and non-CF blood clinical isolates; assay type: cell-based, Pseudomonas aeruginosa; settings: 18 CF and 18 non-CF blood isolates; tetracycline 100 μg/ml
Protocol: Overexpression of the pprB gene in clinical isolates increases sensitivity to aminoglycosides. The pprB overexpresser construct was introduced into aminoglycoside-resistant clinical isolates of P. aeruginosa. 18 cystic fibrosis (CF) isolates and 18 non-CF blood isolates showing varying degrees of resistance to all aminoglycosides were randomly chosen for analysis. Since most of the strains were also resistant to carbenicillin, but sensitive to tetracycline (100 μg/ml), a tetracycline-resistant construct, pRRBTc, that expresses the pprB gene under lac promoter was used.

[3] = target: T1, PprA / PprB; test: In vitro phosphorylation assay with [γ-32P] ATP; assay type: biochemical; settings: 5 min at room temperature, SDS-PAGE, X-ray film
Text: (§1) PprA or PprB were purified and expressed at high levels in E. coli. To produce PprA or PprB in E.coli, coding regions of the two open reading frames were amplified by PCR as described in Wang et al., supra. The PCR products were first cloned into pCR2.1-TOPO, designated pYW017 and pYW020, respectively. Subsequently, a 2.8 kb pprA fragment from pYW017 and an 862 bp pprB fragment from pYW020 were isolated and subcloned into the BamHI and HindIII sites of pQE32 and pQE31, resulting in pYW021 and pYW024, respectively.
(§2) To purify the His-tagged PprA or PprB, E.coli strain M15 harboring pREP4 and pYW021 or pYW024 were induced with 1 mM IPTG for six hours at 28° C. His-tagged PprA and PprB were affinity purified using Ni-agarose column from the soluble fraction of the cell extracts according to the protocol provided by Qiagen, Inc. The purified proteins were dialyzed against storage buffer (50 mM TrisCl pH8.0, 50 mM KCl, 5 mM MgCl2, 1 mM DTT and 50% glycerol) for overnight and stored at−20° C. until use.
(§3) PprA and PprB function in a two-component regulatory system. Like other two-component regulatory genes, both PprA and PprB contain conserved phosphorylation sites (histidine and aspartate, respectively). An in vitro phosphorylation assay was performed to investigate the relationship between the PprA and PprB. PprA and PprB were purified as described in Example 4. […]

[4] = system: PAK1-3 cells; test: Complementation of PAK1-3: aminoglycoside sensitivity after introduction of plasmids; assay type: cell-based, Pseudomonas aeruginosa; settings: PprB overexpression compared with PprA overexpression
Text: A gene associated with membrane permeability, termed pprA, was identified by complementation assay in PAK1-3 cells. On the assumption that the PAK1-3 strain is an impermeable mutant due to loss of a gene function, an effort was made to complement the mutant with wild type PAK chromosomal DNA clones. A clone bank of 3-5 kb PAK chromosomal DNA was constructed in pUCP18, a broad host range plasmid with a lac promoter and β-lactamase. Plasmids with DNA inserts were gel purified from the clone bank and electroporated into PAK1-3.
Transformants were first selected on L-agar containing carbenicillin (150 μg/ml) and then replica plated on L-agar containing carbenicillin (150 μg/ml) plus neomycin (200 μg/ml) to screen for isolates that are sensitive to aminoglycosides. […] Plasmids were purified from the three isolates and re-transformed into fresh PAK1-3 cells. […] This plasmid was designated pUCP18B.
The pprB gene was amplified from the PAK chromosome by PCR and cloned into pUCP19, inserted in the same or opposite direction relative to the lac promoter on the vector. The resulting constructs were designated pZLRR-α and pZLRR-β, respectively. See, Wang et al., 2003, Antimicrobial Agents and Chemotherapy 47:95-101. The PCR product was cloned into pCR2.1-TOPO, resulting pCR-RR in which the pprB gene is in the opposite direction relative to the lac promoter. […]

[5] = system: PprA / PprB; test: In vitro phosphorylation assay with [γ-32P] ATP; assay type: biochemical, Pseudomonas aeruginosa; settings: 5 min at room temperature, SDS-PAGE, X-ray film
Text: as §1, §2, §3

| Molecule | change of resistance/sensitivity of PAK1-3 to the antibiotic [1] | other results |
| --- | --- | --- |
| [H]/N=C(/N)N[C@H]1[C@H](O)[C@@H](O)[C@H](O[C@@H]2O[C@@H](C)[C@](O)(C=O)[C@H]2O[C@@H]2O[C@@H](CO)[C@H](O)[C@@H](O)[C@@H]2NC)[C@@H](N/C(N)=N\[H])[C@@H]1O [streptomycin] | increased resistance |  |
| NC[C@H]1O[C@H](O[C@H]2[C@H](O)[C@@H](O[C@H]3O[C@H](CO)[C@@H](O)[C@H](N)[C@H]3O)[C@H](N)C[C@@H]2N)[C@H](N)C[C@@H]1O [tobamycin] | increased resistance |  |
| CC1(C)S[C@@H]2[C@H](NC(=O)C(C(=O)O)c3ccccc3)C(=O)N2[C@H]1C(=O)O (some centres unmarked) [carbenicillin] | not significantly changed | sensitivity of most of the clinical isolates [2]: resistant |
| CC[C@H]1OC(=O)[C@H](C)[C@@H](O[C@H]2C[C@@](C)(OC)[C@@H](O)[C@H](C)O2)[C@H](C)[C@@H](O[C@@H]2O[C@H](C)C[C@H](N(C)C)[C@H]2O)[C@](C)(O)C[C@@H](C)C(=O)[C@H](C)[C@@H](O)[C@]1(C)O [erythromycin] | increased resistance |  |
| gentamicin | increased resistance |  |
| O=C(O)c1cn(C2CC2)c2cc(N3CCNCC3)c(F)cc2c1=O [ciprofloxacin] | increased resistance |  |
| NCC[C@H](O)C(=O)N[C@@H]1C[C@H](N)[C@@H](O[C@H]2O[C@H](CN)[C@@H](O)[C@H](O)[C@H]2O)[C@H](O)[C@H]1O[C@H]1O[C@H](CO)[C@@H](O)[C@H](N)[C@H]1O [amikacine] | increased resistance |  |
| PprB: putative response regulator (PA4296) encoded by pprB, SEQ ID NO:4; His-tagged, purified from E. coli (protein, listed as Pseudomonas aeruginosa, His tag, His-tagged, purified from E. coli) MDKPASRHFSVLIIDDEPQVTSELRELLENSGYRCVTSTHRESAIASFQADPNIGLVICDLYLGQDNGIRLIESLKEVAGNGRFFESIILTGHDGRQEVIEAMRVGAADYYQKPVAPQELLHGLERLESRLHERVRSQLSLSHVNQRLEYLAESLNSIYRDIHKIKYEVHGNSQPSALRSEDSQPSAPPAPVAESQVSPSNPLFGKLSPRQQAVARLVSKGLTNYQIAYELGITENTVKLYVSQVLRLMHMHNRTQLALALSPAAMQQGSGAVVH |  | phosphorylation of PprB when PprA was mixed with PprB [3]: highly phosphorylated; effect of overexpression on the MIC change of PAK1-3 [4]: much more dramatic |
| PprA: putative histidine kinase homolog (PA4293) encoded by pprA, SEQ ID NO:3; His-tagged, purified from E. coli (protein, listed as Pseudomonas aeruginosa, His tag, His-tagged, purified from E. coli) MFEFSRSSSAEAERPEPFSQEGPALWSASLRSWDLCFEMDEQDRVIRVGGRQAYRLQCAHGLGEQPRPFAEYLERRAPGAPTLAGLRRGERLDLTLRSDAAAPLTCRFQPMQPLDGLGRSLLLGMDISDLNWQSDSQQHQLQSLSLGKLILSRLRHVSHGHLAEAVQEILESLSGAFQMQAIALLLGDGKGFCTVFASHVRPGSDSLLRPPLQLADDDLREGAGARLLRRGEGASTLLRQIGEDALYLVPATMRGGRLGALLVRPMSLEQLAQGPAPQDWQYLAELLANQVADRCELHEQHDSSRKLGLLQEMIGGGWWRYWAEQELFELAPALHDSLGLTGEYRRVPLEHLQGLLQPADADELGLRLRASLRSGQALAQDLCLRQPDSRGERRWLRIEGRPLGRGSALGLSGVLLDISEGRRQEERAQAAHARLRSLIDSAPVVIYVQRVEQGHLVPEFYSESASNLLGLDLQGQSWQALAERVHPDDLEAFFARGRELLREGRVKTRYRLADGQGNWHWLYDEAKLLRDAQGLPSEAVGLWLDVTEQHLAAQRIAESEERYRVLVEDSPALICRYTADLVLTYVNRTFADSLATSPERLVGRRLDEWLAAEDASALRARLLGSPREGASEVPELRFNLPGQRFLWLVWAERPLFDARGELCEVQAVGRDNTPVRRAQQQLAQGAKMASLGEMVSGLAHEVKQPLHVLRMTLFNMRQRMNSVGLDGDYLGEKLERMDAQVLRVDRLVSHLGVFSRKSALEALPFDPYAAFEGALGLLGEGLRQHAIEVECPAPTQRMVVRGQADQLEQVIINLLANARDALLGNPGLASRRVRLEQVACREPGWVELHVHDNGGGIEPLLLERIFEPFFTTKAEGKGTGLGLSVSHDLVRNMGGSLTAANQGEGALFVVRLPLAAPAEAGG |  | phosphorylation of the purified protein alone [5]: phosphorylated |
